Laboratory results published in US20230278972A1, “SUBSTITUTED HALOALKYL SULFONANILIDE HERBICIDES” (FMC Corporation, priority 2020, published 2023).

Legend:
Format in all cases: in vivo
[1] = test system: galium (catchweed bedstraw, Galium aparine); assay: Test A1 postemergence, galium; conditions: for Galium plant response rating: 31 g ai/ha, postemergence; for Plant response rating, Galium: Postemergence
Summary of the method: (§1)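 Plants were grown in a loam soil/sand blend, with test chemicals formulated in a non-phytotoxic solvent mixture containing surfactant. Preemergence treatment (corn) was a directed soil spray at planting. Postemergence treatment was applied to plants 2 to 10 cm tall at the one- to two-leaf stage.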

rice (Oryza sativa) = assay: Test B1 flooded paddy test, rice; conditions: 250 g ai/ha, Flood, applied to paddy water, 2-leaf stage, visually evaluated after 10 to 14 days
Source text: (§2) A dash (-) response means no test result.

kochia (Bassia scoparia) = assay: Test A1 preemergence, kochia
Summary of the method: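 Test compounds were formulated in a non-phytotoxic solvent mixture containing a surfactant. For preemergence, seeds sown in a loam soil–sand blend received a directed soil spray. For postemergence, potted plants in the same soil, 2 to 10 cm tall at the one- to two-leaf stage, were sprayed.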

[2] = test system: ducksalad (Heteranthera limosa); assay: Test B1 flooded paddy test, ducksalad; conditions: 250 g ai/ha, Flood, applied to paddy water, 2-leaf stage, visually evaluated after 10 to 14 days
Source text: as §2

[3] = test system: Pigweed, Palmer (palmer amaranth, palmer pigweed, Amaranthus palmeri); assay: Test A1 postemergence, Pigweed, Palmer; conditions: for Pigweed, Palmer plant response rating: 31 g ai/ha, postemergence; for Plant response rating, Pigweed, Palmer: Postemergence
Summary of the method: as §1

[4] = test system: Foxtail, Giant (giant foxtail, Setaria faberi); assay: Test A1 postemergence, Foxtail, Giant; conditions: for Foxtail, Giant plant response rating: 31 g ai/ha, postemergence; for Plant response rating, Foxtail, Giant: Postemergence
Summary of the method: as §1

[5] = 0 to 100 scale (0 no effect, 100 complete control)
[6] = 125 g ai/ha, 0 to 100 scale (0 no effect, 100 complete control), 10 days
[7] = 31 g ai/ha, 0 to 100 scale (0 no effect, 100 complete control)
[8] = 125 g ai/ha, 0 to 100 scale, 0 no effect, 100 complete control
[9] = 125 g ai/ha, 0 to 100 scale (0 no effect, 100 complete control)

Row | SMILES | Galium plant response rating [1, 5] | Plant response rating, Galium [1, 6] | Plant response rating, Rice (0 to 100 scale, 0 is no effect, 100 is complete control) (rice (Oryza sativa)) | Plant response rating, Kochia (kochia (Bassia scoparia); [7]) | Plant response rating, Kochia (kochia (Bassia scoparia); [8]) | Plant response rating, Ducksalad (0 to 100 scale, 0 is no effect, 100 is complete control) [2] | Pigweed, Palmer plant response rating [3, 5] | Plant response rating, Pigweed, Palmer [3, 6] | Foxtail, Giant plant response rating [4, 5] | Plant response rating, Foxtail, Giant [4, 6] | Plant response rating, Galium ([1]; 500 g ai/ha, 0 to 100 scale) | Plant response rating, Kochia (kochia (Bassia scoparia); 500 g ai/ha, 0 to 100 scale (0 no effect, 100 complete control)) | Plant response rating, Pigweed, Palmer ([3]; 500 g ai/ha, 0 to 100 scale) | Plant response rating, Foxtail, Giant ([4]; 500 g ai/ha, 0 to 100 scale) | Plant response rating, Kochia (kochia (Bassia scoparia); [9])
1 | Cc1c(NS(=O)(=O)C(F)(F)F)cc(C2=NOC3(CCCC3)C2)c(C)c1C [Compound 380] | 50 | 60 | 10 | 0 | 60 | 70 | 0 | 10 | 10 | 80 |  |  |  |  | 
2 | Cc1c(C2=NOC3(CCCC3)C2)cc(N(COC(=O)C(C)(C)C)S(=O)(=O)C(F)(F)F)c(C)c1C [Compound 382] | 0 | 50 | 10 | 0 | 0 | 25 | 0 | 20 | 0 | 50 |  |  |  |  | 
3 | Cc1cc(C)c(N(COC(=O)C(C)(C)C)S(=O)(=O)C(F)(F)F)cc1C1=NOC(C(C)C)C1 (stereo not shown) [Compound 383] | 0 | 60 | 10 | 0 | 0 | 25 | 0 | 10 | 0 | 60 |  |  |  |  | 
4 | Cc1cc(C)c(N2CC3(CCCCC3)CC2=O)cc1NS(=O)(=O)C(F)(F)F [Compound 392] | 50 | 80 | 0 | 20 | 20 | 65 | 0 | 40 | 0 | 0 |  |  |  |  | 
5 | Cc1cc(Cl)c(NS(=O)(=O)C(F)(F)F)cc1N1CCC2(CCCCC2)C1=O [Compound 393] | 100 | 100 | 0 | 60 | 80 | 95 | 0 | 80 | 0 | 40 |  |  |  |  | 
6 | Cc1cc(Cl)c(NS(=O)(=O)C(F)(F)F)cc1N1CC2(CCCCC2)OC1=O [Compound 394] | 100 | 100 | 0 | 30 | 60 | 85 | 50 | 50 | 0 | 50 |  |  |  |  | 
7 | Cc1cc(C)c(N(COC(=O)C(C)(C)C)S(=O)(=O)C(F)(F)F)cc1N1CCC2(CCC(F)(F)CC2)C1=O [Compound 397] |  | 100 | 0 |  | 90 | 75 |  | 80 |  | 20 | 100 | 100 | 100 | 70 | 
8 | COC1CCC2(CC1)CCN(c1cc(NS(=O)(=O)C(F)(F)F)c(C)cc1C)C2=O (stereo not shown) [Compound 398] | 80 | 90 | 30 | 40 | 50 | 95 | 50 | 80 | 20 | 60 |  |  |  |  | 
9 | Cc1cc(C)c(N(S(=O)(=O)C(F)(F)F)S(=O)(=O)C(F)(F)F)cc1N1CCC2(CCC(C(F)(F)F)CC2)C1=O (stereo not shown) [Compound 399] | 50 | 90 | 0 | 0 | 50 | 75 | 30 | 70 | 10 | 60 |  |  |  |  | 
10 | Cc1cc(C)c(N2CCC3(CCC(C(F)(F)F)CC3)C2=O)cc1NS(=O)(=O)C(F)(F)F (stereo not shown) [Compound 400] | 80 | 100 | 25 | 0 | 20 | 55 | 20 | 70 | 0 | 0 |  |  |  |  | 
11 | Cc1cc(C)c(N2Cc3cccc(C)c3C2=O)cc1NS(=O)(=O)Cl [Compound 408] | 90 | 100 | 65 | 0 |  | 75 | 30 | 50 | 90 | 90 |  |  |  |  | 70
12 | COc1cccc2c1C(=O)N(c1cc(N(COC(=O)C(C)(C)C)S(=O)(=O)Cl)c(C)cc1C)C2 [Compound 413] | 50 | 100 | 0 | 70 |  | 80 | 20 | 30 | 0 | 10 |  |  |  |  | 90
13 | CCOc1cccc2c1C(=O)N(c1cc(N(COC(=O)C(C)(C)C)S(=O)(=O)Cl)c(C)cc1C)C2 [Compound 414] | 60 | 70 | 0 | 20 |  | 40 | 0 | 10 | 0 | 0 |  |  |  |  | 80
